# Assay results as given in patent publication US20070238671A1, “Isopeptide Gap Junction Modulators” (priority 2003, published 2007).
# How the values were obtained:
# [1] = system: calcium-induced arrhythmias; assay: Calcium-induced arrhythmia model (Lynch et al.) in mice; assay type: in vivo, Male NMRI mice; conditions: isopeptide 1 nmol/kg i.v. 3 min before CaCl2 infusion; (tarr(testcompound)-tarr(vehicle))x100/tarr(vehicle), time lag to first conduction block
# Experimental: Isopeptides suitable for administration to cardiac cells can be identified in an in vivo model of calcium-induced arrhythmias according to the model of Lynch et al. (1981) J Cardiovasc. Pharmacol. 3: 49-60. Mice (25-30 g) are anaesthetized with a neurolept anaesthetic combination and an i.v. cannula is inserted into the tail vein. A lead II ECG signal is recorded continuously by positioning a stainless steel ECG electrodes on the right forelimb and on the left hind limb. The ground electrode is placed on the right hind limb. The signal is amplified (x 5.000-10.000) and filtered (0.1-150 Hz) via a Hugo Sachs Electronic model 689 ECG module. The analog signal is digitized via a 12 bit data acquisition board (Data Translation model DT321) and sampled at 1000 Hz using the Notocord HEM 3.1 software for Windows NT. After a 10-minute equilibration period, the test sample of peptide is injected into the tail vein. Mice pre-treated with buffer are tested as a measure of the control level in untreated animals. The injection volume is 100 μl in all experiments.
# Infusion of CaCl2 (30 mg/ml, 0.1 ml/min≈100 mg/kg/min (calcium chloride-2-hydrate, Riedel-de Haën, Germany)) is started 3 min after i.v. administration of drug or vehicle. The time lag to onset of 2nd degree AV-block is determined as the time from the start of CaCl2 infusion until the first arrhythmic event occurs. An event of 2nd degree AV-block is defined as intermittent failure of the AV conduction characterised by a P-wave without the concomitant QRS complex.
# Responses are expressed relative to the time until 2nd degree AV-block occurred in vehicle treated mice. The maximal effect of compounds (e.g., isopeptides, AAP, AAP10 or controls) is determined. […]
# An intravenous cannula was inserted into the tail vein. The lead II ECG signal was recorded continuously by positioning of stainless steel ECG electrodes on the right forelimb and on the left hind limb. […]
# human osteoblast cells = assay: Standard tumor promoter assay: Lucifer Yellow dye transfer, DDT-induced uncoupling; assay type: cell-based; conditions: DDT 13 μM for 60 minutes, n=13; control without DDT median 14.5 cells
# Source text: The compound 1,1-bis(p-chlorophenyl)-2,2,2-trichlorethane, also known as the insecticide DDT, is an inhibitor of gap junctional communication, and has tumor promoting abilities. It inhibits cell-to-cell communication by reducing the gap junction number and size, and exposure to DDT is associated with decreased cellular levels of phosphorylated (active) forms of the gap junction protein Cx43. These actions are considered pivotal for the compound's oncogenic properties (X. Guan, et al. (1996) Carcinogenesis, 17 1791-1798; R. J. Ruch, et al. (1994) Carcinogenesis, 15 301-306); B. V. Madhukar, et al. (1996) Cancer Lett. 106 117-123). As a means of monitoring the therapeutic efficacy of the isopeptides, the effects of the isopeptides on DDT-induced uncoupling in human osteoblast cells can be determined. […]
# After harvesting, the mononuclear fraction is washed once with culture medium and centrifuged at 1800 rpm for 10 minutes. Subsequently cells are counted and plated in culture medium at 8×10^6 cells/100 mm dish. […]
# After culturing, cells are affixed to a PDMI-2 culture chamber (Medical Systems Corp.), maintained at 37° C. with superfused CO2, on a Zeiss Axiovert microscope. […] A cell in the monolayer is carefully injected with LY for 30 seconds; the micropipette is removed from the cell and after 30 seconds the number of cells that show dye transfer is counted. […]
Molecule,% response [1],number of cells that show dye transfer (median) (human osteoblast cells)
H-Gly-iso-D-Lys(4-methoxybenzoyl)-OH [Compound 18],16%,
H-iso-Gln(NH(4-methoxybenzyl))-Ala-OH [Compound 101],68%,
H-Gly-iso-D-Lys(4-nitrobenzoyl)-OH [Compound 19],33%,
H-iso-Gln(NH(4-methoxybenzyl))-D-Ala-OH [Compound 116],25%,
"Clc1ccc(C(c2ccc(Cl)cc2)C(Cl)(Cl)Cl)cc1 [DDT, 1,1-bis(p-chlorophenyl)-2,2,2-trichlorethane]",,7
